According to US20160022760A1, “METHODS OF TREATING CELIAC DISEASE WITH LARAZOTIDE” (priority 2014, published 2016):
Where no end group is shown, it is not given here.

Legend:
[1] = system: anti-tissue transglutaminase (anti-tTG IgA and IgG); conditions: each treatment group, MITT
From the text: (§1) Blood was collected for determination of serum anti-tTG (IgA and IgG) and anti-DGP (IgA and IgG) at the timings specified in Table 2.
(§2) Anti-tTG (IgA and IgG) and anti-DGP (IgA and IgG), and change from baseline (Week 0) to Visit 4 (Week 4), End of Treatment Visit 6 (Week 12), and End of Study Visit 7 (Week 16) were summarized descriptively. Week 0 served as baseline.

[2] = system: anti-deamidated gliadin peptide (anti-DGP IgA and IgG); conditions: MITT
From the text: as §1, §2

[3] = Phase IIb study: vital signs, BMI and body weight; format: in vivo, human
Description: Body weight was measured and BMI was calculated based upon screening height and weight at the timings specified in Table 2.
The Investigator or designee obtained vital signs including temperature, blood pressure (sitting), and pulse at screening and all study visits.
For continuous variables, changes from baseline to each time point were summarized with the number of nonmissing values, mean, standard deviation, median, and minimum and maximum values. For categorical variables, subject counts and percentages were provided. Results of ECGs were classified as normal; abnormal, not clinically significant, and abnormal, clinically significant, as specified on the ECG page of the eCRF. Summaries were presented by treatment group.

[4] = system: celiac disease; conditions: cited from earlier work

GGVLVQPG (SEQ ID NO:1) [Larazotide acetate]
Average anti-tTG antibody titers (IgA) over the study, in words [1]: remained relatively unchanged
Average anti-tTG antibody titers (IgA) ([1]; throughout the study): < 10 units
Anti-DGP (IgA and IgG) antibody titers versus placebo, in words ([2]; any Larazotide acetate group): no clinically meaningful post baseline differences
Average anti-DGP antibody titers (IgA) over the study, in words ([2]; each treatment group): remained relatively unchanged
Mean change from baseline in BMI (range) ([3]; 0.5, 1 and 2 mg groups, Week 4, Week 8, end of treatment, end of follow-up, placebo −0.1 to −0.3): 0 to 0.2 kg/m^2
Mean change from baseline in body weight (range) ([3]; 0.5, 1 and 2 mg groups, placebo −0.2 to −0.8): -0.1 to 0.5 kg
Mean changes from baseline in vital sign variables versus placebo, in words ([3]; systolic and diastolic blood pressure, pulse rate, body temperature): No clinically meaningful differences
Safety profile in previous clinical studies, in words ([4]; 0.25 mg to 8 mg TID and up to 36 mg in a single dose): acceptable safety profile
Efficacy of lower doses in previous studies, in words ([4]; lower doses 0.25 mg and 1 mg versus 4 mg or 8 mg): more effective compared to placebo than higher doses of 4 mg or 8 mg
